Experiment: Stability of the compound during isolation
Assay type: physicochemical
Conditions: isolation from culture
Description: Authors' possible answers (A) to the comments (C) raised by Reviewer #2.
This manuscript by Kudo et al. describes the combined application of in vitro CRIPS-Cas9 and Gibson assembly technology to edit type 1 modular PKSs. Authors […]
module deletion/insertion, reductive domains, stereochemistry of beta-hydroxyl group, and double modification (ER and KR) using rapamycin PKS as a model system. Although in vitro CIRPR/Cas9 system for refactoring of biosynthetic gene clusters in Streptomyces has been reported previously (mBio 6(6):e01714-15), this manuscript may be the first report to use CIRPR/Cas9 technology to edit the large modular PKSs.
We thank Reviewer #2 for the positive evaluation of our technology. Since the engineering […]
(C-1) Although the method used in this study seems promising to edit PKS efficiently, authors should present the complete structural data (e.g. 1D and 2D NMR) of all […]
(A-1) We have added NMR data for compounds 10, 11 , 12, 13, 15 and 16, whose yields were high enough allow their analysis by NMR. In addition, we confirmed the quantitative analysis of all compounds (Supplementary Table 3). […]
smaller m/z than that of 5 (Figs. A(d) and (e)). Multiple degradation products were detected (Fig. B) and those peaks were not detectable from crude extract before isolation.
We measured a NMR spectrum of the collected sample (ca 0.8 mg), however, the sample […]

Compound | Stability during isolation, in words
CO[C@@H]1C[C@H](C[C@@H](C)[C@@H]2CC(=O)[C@H](C)/C=C(\C)[C@@H](O)CC(=O)[C@H](C)/C=C(C)/C=C/C=C/C=C(\C)[C@H](O)C[C@@H]3CC[C@@H](C)[C@@](O)(O3)C(=O)C(=O)N3CCCC[C@H]3C(=O)O2)CC[C@H]1O [Compound 19, 27-demethoxy-16-O-demethyl-23,24-didehydro-rapamycin] | so unstable that we could not isolate it
CO[C@H]1C[C@@H]2CC[C@@H](C)[C@@](O)(O2)C(=O)C(=O)N2CCCC[C@H]2C(=O)O[C@H]([C@H](C)C[C@@H]2CC[C@@H](O)[C@H](OC)C2)CC(=O)[C@H](C)/C=C(\C)[C@@H](O)[C@@H](OC)C(=O)[C@H](C)CC/C=C/C=C/C=C/1C [Compound 5, 23-demethyl rapamycin] | instability
